Structures can show the parent of a compound that is named as a salt.
Assays:
[1] = test system: beta-adrenergic cardiac receptors (isolated guinea pig atrium); experiment: Beta-blocking activity: isolated guinea pig atrium method; conditions: concentration inhibiting 25% of the response to isoprenaline, 29° C., 10 minutes before isoprenaline
Protocol: (a) Beta-blocking activity: isolated guinea pig atrium method
The compounds under examination were tested on the isolated guinea pig atrium for their capacity to antagonise the positive inotropic and chronotropic effects induced by isoprenaline. The preparations were made up from native guinea pigs weighing 450±50 g and suspended in a 10 ml bath of oxygenated Tyrode maintained at 29° C., the frequency and force of contraction being recorded by means of an isotonic pen loaded with 1.5 g and having an amplification ratio of 1:15. The substance under test was added to the medium in a volume of 0.1 ml 10 minutes before stimulation by isoprenalina administered at the optimum concentration which had been determined on the basis of the reactivity of the preparation.

[2] = LD50 in the male Wistar rat by intravenous administration; conditions: in vivo, i.v.
[3] = test system: guinea pig; experiment: Protection from the lethal effect of aconitine in the guinea pig; assay type: in vivo; conditions: Cavia porcellus, 10 min, intravenous, 10 minutes before aconitine perfusion, read-out: percentage increase in the time of death by aconitine with respect to the control animals; for change in vivo at 0.01 mg/kg: dose 10 μg/kg; for change in vivo at 0.02 mg/kg: dose 20 μg/kg; for change in vivo at 0.015 mg/kg: dose 15 μg/kg; for change in vivo at 0.025 mg/kg: dose 25 μg/kg; for change in vivo at 0.009 mg/kg: dose 9 μg/kg
Protocol: Protection from the methal effect of aconitine in the guinea pig. For the compounds according to the invention, an evaluation was made of their capacity to antagonise the lethal effect of aconitine in native guinea pigs of both sexes having an average weight of 400±50 g, anesthetized with 10% ethylurethan (1 g/kg i.p.), by making an E.C.G. precardiacal recording. Death was induced by perfusing aconitine through the jugular at a dose of 150 γ/kg/hour (5 ml/hour). The time of commencement of arrhythmia, the time of commencement of fibrillation and the time of death were checked. The product under examination were administered to the jugular vein 10 minutes before commencement of perfusion in doses from 0.01 mg/kg to 10 mg/kg.

[4] = test system: isolated guinea pig trachea; experiment: Beta-blocking activity by the isolated guinea pig trachea method; conditions: concentration able to inhibit 50% of the response; 37° C., 12 minutes before stimulation
Protocol: (b) Beta-blocking activity by the isolated guinea pig trachea method
The series was also tested for beta-blocking activity at the level of the isolated guinea pig trachea, evaluated as antagonism to the effect of isoprenaline.
A trachea segment was withdrawn from animals weighing 450±50 g, and a spiral of tissue was prepared and then suspended in a 20 ml bath of oxygenated Tyrode containing 10^-7 g/ml of acetylcholine and […] of eserine, the bath being temperature-controlled at 37° C. The recording was made by means of an isotonic pen with maximum amplification,loaded to 0.5 g and constantly cibrated.
Having determined the sub-maximum concentration of isoprenaline for stimulating the preparation, the test substance was placed in contact with it at different concentrations 12 minutes before stimulation, then evaluating the antagonistic effect.

Compound | IC25, positive chronotropic effect with isoprenaline [1] | IC25, positive inotropic effect with isoprenaline [1] | LD50 [2] | change in vivo at 0.01 mg/kg [3] | IC50, antagonism in the response of the isolated guinea pig trachea to isoprenaline [4] | change in vivo at 0.02 mg/kg [3] | change in vivo at 0.015 mg/kg [3] | change in vivo at 0.025 mg/kg [3] | change in vivo at 0.009 mg/kg [3]
CC(C)(C)NCC(O)COc1cccc2c1CCC(=O)N2 (stereo not drawn) [Carteolol, 5-(3-tert.butylamino-2-hydroxy-propoxy)-3,4-dihydro-carbostyryl-hydrochloride, reference compound] | 0.00905 µg/mL | 0.00173 µg/mL | 50 mg/kg | – | – | – | – | – | –
CC(C)(C)NCC(O)COc1ccc2c(c1)SCC(=O)N2 (stereo not drawn) [Compound XIII, 7-(3-tert.butylamino-2-hydroxy)-propoxy-3,4-dihydro-2H-1,4-benzothiazin-3-one] | 0.0703 µg/mL | 0.0565 µg/mL | 60 mg/kg | 39.7% | 0.125 µg/mL | – | – | – | –
CC(C)CNCC(O)COc1ccc2c(c1)SCC(=O)N2 (stereo not drawn) [Compound XII] | 0.55 µg/mL | 0.361 µg/mL | 82 mg/kg | – | 0.806 µg/mL | 16.4% | – | – | –
CC(C)NCC(O)COc1ccc2c(c1)SCC(=O)N2 (stereo not drawn) [Compound XI] | 0.091 µg/mL | 0.0743 µg/mL | 65 mg/kg | – | 0.76 µg/mL | – | 21.3% | – | –
CCC(C)NCC(O)COc1ccc2c(c1)NC(=O)CS2 (stereo not drawn) [Compound X] | 0.803 µg/mL | 0.67 µg/mL | 78 mg/kg | – | 0.66 µg/mL | – | – | 11.3% | –
CC(C)(C)NCC(O)COc1ccc2c(c1)NC(=O)CS2 (stereo not drawn) [IX] | 0.255 µg/mL | 0.203 µg/mL | 75 mg/kg | 25.9% | 0.568 µg/mL | – | – | – | –
CC(C)CNCC(O)COc1ccc2c(c1)NC(=O)CS2 (stereo not drawn) [VIII] | 0.861 µg/mL | 0.741 µg/mL | 83 mg/kg | – | 1.14 µg/mL | 19% | – | – | –
CC(C)NCC(O)COc1ccc2c(c1)NC(=O)CS2 (stereo not drawn) [VII] | 0.415 µg/mL | 0.346 µg/mL | 80 mg/kg | – | 0.43 µg/mL | – | – | 24.1% | –
CCC(C)NCC(O)COc1ccc2c(c1)SCC(=O)N2 (stereo not drawn) [XIV] | 0.202 µg/mL | 0.0978 µg/mL | 68 mg/kg | – | 0.25 µg/mL | – | 20.6% | – | –
CCC(C)NCC(O)COc1cccc2c1SCC(=O)N2 (stereo not drawn) [XVIII] | 0.803 µg/mL | 0.0705 µg/mL | 75 mg/kg | 49.2% | 1.21 µg/mL | – | – | – | –
CC(C)(C)NCC(O)COc1cccc2c1SCC(=O)N2 (stereo not drawn) [XVII] | 0.000992 µg/mL | 0.000276 µg/mL | 50 mg/kg | – | 0.0015 µg/mL | – | – | – | 55.4%
CC(C)CNCC(O)COc1cccc2c1SCC(=O)N2 (stereo not drawn) [XVI] | 0.13 µg/mL | 0.0995 µg/mL | 67 mg/kg | 32.2% | 0.112 µg/mL | – | – | – | –
CC(C)NCC(O)COc1cccc2c1SCC(=O)N2 (stereo not drawn) [XV] | 0.0641 µg/mL | 0.0587 µg/mL | 73 mg/kg | – | 0.123 µg/mL | – | – | – | 48.6%

— patent US4535079A, “Alkanolaminoxy derivatives of 3,4-dihydro-2H-1,4-benzothiazin-3-one, their production process, and their pharmaceutical use” (Mediolanum Farmaceutici S.R.L., priority 1982, dated 1985)
